Assays:
[1] = target: T1, chitin synthase 1 of Candida albicans chs2 Δ chs 3 Δ (Candida albicans, UniProt P23316); test: In vitro enzyme assay for chitin synthase 1 of Candida albicans (enzyme 1); assay type: biochemical; settings: relative to polyoxin D (50% inhibitory activity = value 5)
T1 construct: Crude enzyme was prepared using the Candida albicans chs2 Δ chs 3 Δ mutant; endogenous in cells; host or cells: Candida albicans chs2Δ/chs2Δ chs3Δ/chs3Δ mutant; 130,000 x g membrane pellet
Procedure, shortened: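 Crude membrane enzyme from the C. albicans chs2Δ chs3Δ strain was trypsin-activated for 15 min at 30 °C. Reaction: 32 mM Tris-HCl pH 7.5, 2 mM cobalt acetate, 1.1 mM UDP-[14C]GlcNAc, 90 min at 30 °C; TCA-insoluble radioactivity counted. Scored 1–8 by relative polyoxin D concentration (5 = equal).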

[2] = target: T2, chitin synthase 2 of Saccharomyces cerevisiae ECY38-38A(pAS6) (Saccharomyces cerevisiae, UniProt P14180); test: In vitro enzyme assay for chitin synthase 2 of Saccharomyces cerevisiae (enzyme 2); assay type: biochemical; settings: relative to polyoxin D (50% inhibitory activity = value 5)
T2 construct: made in house; host or cells: Saccharomyces cerevisiae ECY38-38A (chs1-23 chs2::LEU2 cal1/csd2) carrying plasmid pAS6, grown in galactose medium; 130,000 x g membrane pellet
Procedure, shortened: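 Crude membrane chitin synthase 2 came from S. cerevisiae ECY38-38A(pAS6), expressing only CHS2, and was trypsin-activated (15 min, 30 °C) then trypsin-inhibited. The reaction ran in 32 mM Tris-HCl pH 7.5, 2 mM cobalt acetate, 1.1 mM UDP-[14C]-GlcNAc, 90 min at 30 °C. TCA-precipitated product was counted by scintillation; scores 1–8 reflect concentration relative to polyoxin D's 50% inhibition (score 5).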

[3] = tested on: Cryptococcus neoformans ATCC 36556; test: In vitro antifungal activity (MIC), NCCLS method; assay type: cell-based; settings: RPMI 1640 medium, 72 hours
Procedure, shortened: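 Broth microdilution per NCCLS: two-fold serial dilutions of test compound inoculated with fungal suspension at a final 5×10^2 to 2.5×10^3 cell/mL. Strains other than Cryptococcus neoformans were incubated 48 hours before MIC reading.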

[4] = tested on: Mucor ramosissimus ATCC 90286; test: In vitro antifungal activity (MIC), NCCLS method; assay type: cell-based; settings: 48 hours
Procedure, shortened: (§1)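 Broth MIC by NCCLS two-fold dilution, final inoculum 5×10^2 to 2.5×10^3 cell/mL. Candida and Mucor strains incubated 48 hours.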

[5] = tested on: Candida albicans A207 (clinical isolate); test: In vitro antifungal activity (MIC), NCCLS method; assay type: cell-based; settings: 48 hours
Procedure, shortened: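 MIC read as the lowest concentration inhibiting growth after 48 hours of culture. Setup follows NCCLS: compound diluted two-fold and inoculated at 5×10^2 to 2.5×10^3 cell/mL final.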

[6] = tested on: Aspergillus fumigatus ATCC 16424; test: In vitro antifungal activity (MIC), NCCLS method; assay type: cell-based; settings: 48 hours
Procedure, shortened: (§2)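 According to NCCLS guidance, each compound is diluted two-fold and challenged with a fungal inoculum of 5×10^2 to 2.5×10^3 cell/mL (final). Incubation lasts 48 hours.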

[7] = tested on: Candida tropicalis ATCC 13803; test: In vitro antifungal activity (MIC), NCCLS method; assay type: cell-based; settings: 48 hours
Procedure, shortened: as §1

[8] = tested on: Candida parapsilosis ATCC 34136; test: In vitro antifungal activity (MIC), NCCLS method; assay type: cell-based; settings: Candida parapsilosis ATCC 34136; 48 hours
Procedure, shortened: as §1

[9] = tested on: Candida lusitaniae ATCC 42720; test: In vitro antifungal activity (MIC), NCCLS method; assay type: cell-based; settings: 48 hours
Procedure, shortened: as §1

[10] = tested on: Aspergillus flavus ATCC 64025; test: In vitro antifungal activity (MIC), NCCLS method; assay type: cell-based; settings: 48 hours
Procedure, shortened: as §2

[11] = tested on: Aspergillus terreus ATCC 46941; test: In vitro antifungal activity (MIC), NCCLS method; assay type: cell-based; settings: 48 hours
Procedure, shortened: as §2

[12] = tested on: Candida albicans ATCC 10231; test: In vitro antifungal activity (MIC), NCCLS method; assay type: cell-based; settings: 48 hours
Procedure, shortened: as §1

[13] = tested on: Candida glabrata ATCC 48435; test: In vitro antifungal activity (MIC), NCCLS method; assay type: cell-based; settings: Candida glabrata ATCC 48435; 48 hours
Procedure, shortened: as §1

Candida krusei ATCC 6258 = test: In vitro antifungal activity (MIC), NCCLS method; assay type: cell-based; settings: 48 hours
Procedure, shortened: as §1

T1 sequence (P23316 whole entry, stated change not applied): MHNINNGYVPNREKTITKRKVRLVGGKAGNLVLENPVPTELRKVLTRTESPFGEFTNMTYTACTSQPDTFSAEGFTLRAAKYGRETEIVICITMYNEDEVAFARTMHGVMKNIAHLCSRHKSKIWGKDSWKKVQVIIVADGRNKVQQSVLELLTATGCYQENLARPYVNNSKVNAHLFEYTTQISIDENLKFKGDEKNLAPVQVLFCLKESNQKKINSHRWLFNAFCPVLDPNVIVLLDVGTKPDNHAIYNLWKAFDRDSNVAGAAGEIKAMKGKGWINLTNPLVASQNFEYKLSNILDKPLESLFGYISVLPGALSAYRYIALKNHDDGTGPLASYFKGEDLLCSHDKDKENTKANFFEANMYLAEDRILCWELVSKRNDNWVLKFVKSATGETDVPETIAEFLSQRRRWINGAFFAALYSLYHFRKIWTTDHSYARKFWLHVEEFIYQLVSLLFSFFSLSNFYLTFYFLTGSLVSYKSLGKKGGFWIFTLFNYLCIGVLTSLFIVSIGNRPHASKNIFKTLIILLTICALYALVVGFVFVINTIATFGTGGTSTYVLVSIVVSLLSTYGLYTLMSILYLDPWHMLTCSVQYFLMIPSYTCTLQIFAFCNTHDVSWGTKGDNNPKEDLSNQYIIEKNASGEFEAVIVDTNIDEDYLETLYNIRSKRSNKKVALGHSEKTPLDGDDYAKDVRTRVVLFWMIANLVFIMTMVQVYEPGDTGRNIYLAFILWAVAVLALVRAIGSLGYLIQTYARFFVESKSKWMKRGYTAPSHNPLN
T2 sequence (P14180 whole entry): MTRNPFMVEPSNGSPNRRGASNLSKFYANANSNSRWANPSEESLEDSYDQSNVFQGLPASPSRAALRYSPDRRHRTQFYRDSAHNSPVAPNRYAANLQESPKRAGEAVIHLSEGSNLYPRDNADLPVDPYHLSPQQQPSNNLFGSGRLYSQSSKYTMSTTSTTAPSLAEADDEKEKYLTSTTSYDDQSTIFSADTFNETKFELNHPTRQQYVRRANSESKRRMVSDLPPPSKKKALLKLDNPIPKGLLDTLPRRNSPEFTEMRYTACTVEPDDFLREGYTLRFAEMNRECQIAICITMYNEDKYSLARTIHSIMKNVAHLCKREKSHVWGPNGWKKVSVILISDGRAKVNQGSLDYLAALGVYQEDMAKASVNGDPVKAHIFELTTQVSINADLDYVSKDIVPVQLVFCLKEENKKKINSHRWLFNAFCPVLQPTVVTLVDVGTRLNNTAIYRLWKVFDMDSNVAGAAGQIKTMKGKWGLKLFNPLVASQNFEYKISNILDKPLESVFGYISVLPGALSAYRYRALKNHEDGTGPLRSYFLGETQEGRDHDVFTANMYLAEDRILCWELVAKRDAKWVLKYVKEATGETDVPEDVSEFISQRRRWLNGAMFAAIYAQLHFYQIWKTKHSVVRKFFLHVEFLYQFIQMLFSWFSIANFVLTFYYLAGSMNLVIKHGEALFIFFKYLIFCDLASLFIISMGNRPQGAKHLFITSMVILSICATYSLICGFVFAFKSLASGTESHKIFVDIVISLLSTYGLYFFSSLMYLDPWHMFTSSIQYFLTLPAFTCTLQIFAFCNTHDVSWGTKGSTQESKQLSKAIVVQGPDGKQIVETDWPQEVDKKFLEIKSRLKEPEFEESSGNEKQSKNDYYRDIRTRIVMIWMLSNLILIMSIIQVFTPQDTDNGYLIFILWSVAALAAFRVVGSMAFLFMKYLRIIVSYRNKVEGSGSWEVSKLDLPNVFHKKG

| Substance | Relative activity Enzyme 1 [1] | Relative activity Enzyme 2 [2] | MIC (minimum inhibitory concentration) [3] [µg/mL] | MIC (minimum inhibitory concentration) [4] [µg/mL] | MIC (minimum inhibitory concentration) [5] [µg/mL] | MIC (minimum inhibitory concentration) [6] [µg/mL] | MIC (minimum inhibitory concentration) [7] [µg/mL] | MIC (minimum inhibitory concentration) [8] [µg/mL] | MIC (minimum inhibitory concentration) [9] [µg/mL] | MIC (minimum inhibitory concentration) [10] [µg/mL] | MIC (minimum inhibitory concentration) [11] [µg/mL] | MIC (minimum inhibitory concentration) [12] [µg/mL] | MIC (minimum inhibitory concentration) [13] [µg/mL] | MIC (minimum inhibitory concentration) (Candida krusei ATCC 6258) [µg/mL] |
| --- | --- | --- | --- | --- | --- | --- | --- | --- | --- | --- | --- | --- | --- | --- |
| 13-(4-tert-Butylbenzyl)-9-O-hexylberberrubine iodide [Compound No. 9] | 3 (Compounds having the inhibitory activity at 2-fold, 4-fold, 8-fold and 16-fold higher concentrations than that of polyoxin D were given the values of 4, 3, 2 and 1, respectively) | 6 (compounds having the inhibitory activity at ½, ¼ and ⅛ lower concentrations than that of polyoxin D were given the values of 6, 7 and 8, respectively) | 1 | 4 | 0.25 | 2 | 0.125 | 2 | 1 | 8 | 8 | 0.25 | 2 | 1 |
| 13-(4-tert-Butylbenzyl)-9-O-(6-chlorohexyl)berberrubine chloride [Compound No. 44] | 2 (Compounds having the inhibitory activity at 2-fold, 4-fold, 8-fold and 16-fold higher concentrations than that of polyoxin D were given the values of 4, 3, 2 and 1, respectively) | 6 (compounds having the inhibitory activity at ½, ¼ and ⅛ lower concentrations than that of polyoxin D were given the values of 6, 7 and 8, respectively) | 1 | 4 | 0.5 | 2 | 0.5 | 2 | 2 | 8 | 8 | 0.5 | 2 | 1 |
| 13-(4-tert-Butylbenzyl)-9-O-allylberberrubine iodide [Compound No. 13] | 2 (Compounds having the inhibitory activity at 2-fold, 4-fold, 8-fold and 16-fold higher concentrations than that of polyoxin D were given the values of 4, 3, 2 and 1, respectively) | 5 (A compound having the same inhibitory activity as that of polyoxin D at the same concentration was given the value 5) | 2 | 4 | 1 | 8 | 1 | 4 | 2 | 8 | 8 | 1 | 8 | 2 |
| 13-(4-Isopropylbenzyl)-9-O-(4-isopropylbenzyl)berberrubine bromide [Compound No. 26] | 2 (Compounds having the inhibitory activity at 2-fold, 4-fold, 8-fold and 16-fold higher concentrations than that of polyoxin D were given the values of 4, 3, 2 and 1, respectively) | 5 (A compound having the same inhibitory activity as that of polyoxin D at the same concentration was given the value 5) | 2 | 8 | 1 | 4 | 1 | 8 | 4 | 8 | 8 | 1 | 2 | 2 |
| 13-(4-tert-Butylbenzyl)-9-O-crotylberberrubine bromide [Compound No. 14] | 2 (Compounds having the inhibitory activity at 2-fold, 4-fold, 8-fold and 16-fold higher concentrations than that of polyoxin D were given the values of 4, 3, 2 and 1, respectively) | 5 (A compound having the same inhibitory activity as that of polyoxin D at the same concentration was given the value 5) | 1 | 4 | 0.5 | 2 | 0.5 | 4 | 1 | 8 | 4 | 0.5 | 4 | 1 |
| 13-(4-tert-Butylbenzyl)-9-O-(6-chlorohexyl)berberrubine iodide [Compound No. 12] | 2 (Compounds having the inhibitory activity at 2-fold, 4-fold, 8-fold and 16-fold higher concentrations than that of polyoxin D were given the values of 4, 3, 2 and 1, respectively) | 5 (A compound having the same inhibitory activity as that of polyoxin D at the same concentration was given the value 5) | 1 | 4 | 0.5 | 2 | 0.5 | 2 | 2 | 8 | 8 | 0.5 | 2 | 1 |
| 13-(4-Isopropylbenzyl)-9-O-(6-chlorohexyl)berberrubine chloride [Compound No. 54] | 2 (Compounds having the inhibitory activity at 2-fold, 4-fold, 8-fold and 16-fold higher concentrations than that of polyoxin D were given the values of 4, 3, 2 and 1, respectively) | 6 (compounds having the inhibitory activity at ½, ¼ and ⅛ lower concentrations than that of polyoxin D were given the values of 6, 7 and 8, respectively) | 1 | 4 | 0.5 | 2 | 0.5 | 2 | 2 | 8 | 8 | 0.5 | 2 | 1 |

— patent US7915276B2, “Berberrubine derivatives having antifungal activities” (priority 2006, dated 2011)
